Here are results for two compounds from patent US20250027130A1, “Nucleic Acid Synthesis and Sequencing Using Tethered Nucleoside Triphosphates” (The Regents of the University of California, priority 2022, published 2025).

SMILES strings stand for the structures.

Assay [1] relates to DH10B cells co-expressing MaFRSA. Put plainly: In vivo incorporation at position 200 of sfGFP, MaFRSA (intact mass, GluC LC-MS/MS). The class given is cell-based, E. coli. The conditions noted are these: samples iv-v, DH10B, TB, 1 mM substrate.
Assay [2] has as its system DH10B ΔaspC ΔtyrB harboring pMega-MaFRSA. It counts as cell-based, E. coli. The conditions noted are these: samples viii-ix, TB, 1 mM substrate.

Take `N[C@@H](Cc1cccc(C(F)(F)F)c1)C(=O)O` [Sample 20]: the “sfGFP containing variant 20 at position 200” value in assay [1] was 98.73%; in assay [2] it was 98.19%.

Take `N[C@@H](Cc1cccc(C(F)(F)F)c1)C(=O)O` [Substrate 20]: in assay [1], the “sfGFP containing variant 1 at position 200” value is reported as 0.00%, the “sfGFP containing variant 2 at position 200” value turned out to be 0.00%, the “sfGFP containing variant 21 at position 200” value was found to be 0.32% and the “sfGFP containing variant A at position 200” value is given as 0.03%. In assay [1], the “sfGFP containing variant F at position 200” value came out at 0.34%, the “sfGFP containing variant K at position 200” value was determined as 0.02%, the “sfGFP containing variant Q at position 200” value is 0.11% and the “sfGFP containing variant W at position 200” value came out at 0.17%. Also, in assay [1], the “sfGFP containing variant Y at position 200” value was 0.28%. Also, in assay [2], the “sfGFP containing variant 1 at position 200” value was 0.00%, the “sfGFP containing variant 2 at position 200” value is recorded as 0.00%, the “sfGFP containing variant 21 at position 200” value is reported as 0.65% and the “sfGFP containing variant A at position 200” value came out at 0.02%. Also, in assay [2], the “sfGFP containing variant F at position 200” value amounted to 0.34%, the “sfGFP containing variant K at position 200” value amounted to 0.01%, the “sfGFP containing variant Q at position 200” value stood at 0.07% and the “sfGFP containing variant W at position 200” value is 0.12%. In addition, the “sfGFP containing variant Y at position 200” value in assay [2] is reported as 0.60%.
